Experiment [1] deals with T1, Recombinant human LOXL2 (lysyl oxidase like 2) (Homo sapiens, UniProt Q9Y4K0).
T1 construct: purchased R&D systems
T1 sequence (Q9Y4K0 26-774): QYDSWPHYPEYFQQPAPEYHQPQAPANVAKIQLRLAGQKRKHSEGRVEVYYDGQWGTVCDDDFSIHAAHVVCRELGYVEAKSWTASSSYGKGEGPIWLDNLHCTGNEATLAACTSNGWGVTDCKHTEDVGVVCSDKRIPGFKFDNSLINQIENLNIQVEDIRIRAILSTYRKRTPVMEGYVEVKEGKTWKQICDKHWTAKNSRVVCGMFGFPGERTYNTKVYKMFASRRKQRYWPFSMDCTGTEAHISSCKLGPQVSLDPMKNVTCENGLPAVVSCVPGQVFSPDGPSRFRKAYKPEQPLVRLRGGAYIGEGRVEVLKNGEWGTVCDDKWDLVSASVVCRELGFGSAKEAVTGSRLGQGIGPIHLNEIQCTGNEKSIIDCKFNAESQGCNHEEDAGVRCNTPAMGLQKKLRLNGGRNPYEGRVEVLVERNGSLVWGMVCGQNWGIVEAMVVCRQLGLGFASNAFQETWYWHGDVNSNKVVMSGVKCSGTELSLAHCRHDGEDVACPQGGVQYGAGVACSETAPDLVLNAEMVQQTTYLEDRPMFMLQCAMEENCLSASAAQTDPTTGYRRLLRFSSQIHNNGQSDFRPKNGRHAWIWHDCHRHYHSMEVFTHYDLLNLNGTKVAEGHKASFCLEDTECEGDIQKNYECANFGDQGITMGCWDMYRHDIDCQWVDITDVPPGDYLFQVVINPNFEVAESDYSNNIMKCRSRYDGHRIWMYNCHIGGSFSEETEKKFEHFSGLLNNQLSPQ
Nature of the experiment: LOXL2 inhibition assay (fluorometric, cadaverine/Amplex Red/HRP). In kind it is biochemical. As to conditions: IC50 class; recombinant human LOXL2, cadaverine substrate; read-out: Activity Range LOXL2. The method, then:
(§1) The ability of compounds to inhibit one or more of the lysyl oxidases LOXL2 and/or LOXL3 was determined using a fluorometric assay. This assay measures the activity of lysyl oxidases by coupling the reaction with horseradish peroxidase-catalyzed […]. The activity assay protocol uses cadaverine as substrate that releases hydrogen peroxide upon transformation by the specific LOX family enzyme present in the sample. Hydrogen peroxide is in turn detected using a red fluorescence substrate for HRP-coupled reactions (Amplex Red Enzyme Assays, Thermo Scientific Fisher). This leads to increase in fluorescence that can be easily detected at Ex/Em=540/590 nm in a fluorescence microplate reader.
Enzymes: Recombinant human LOXL2 (lysyl oxidase like 2) and recombinant human LOXL3 (lysyl oxidase like 3) were purchased from R&D systems and assays were performed in 1.2 M urea, 50 mM sodium borate buffer pH 8.0, and 10 mM CaCl.
Reaction: Final concentration in the LOXL2 and LOXL3 assays were as following and performed in a total volume of […]:
Experimental procedure: 5 μl of freshly prepared reaction buffer were delivered to reaction wells. Compounds were resuspended in 100% DMSO at 10 mM and delivered into buffer using acoustic technology (Echo550; nanoliter range). A 3× solution of LOXL2 or LOXL3 in reaction buffer was prepared (“enzyme solution”) and 5 μL of enzyme solution was added into the reaction wells. Buffer only was added to column 1 for no protein control. Reactions were incubated for 30 minutes at 37° C. A 3×mixture of cadaverine, Amplex Red, and HRP (“Substrate/Detection Mix) was prepared and subsequently 5 μL of the mixture added to each reaction well. Progress of reactions was monitored for 60 minutes at 37° C. using Clariostar plate reader (ex 530-12, ems 600-40). For all activity assays, pan-LOX inhibitor CCT365623 (Tang et al, 2017) and LOXL2/LOXL3 inhibitor PAT-1251 (PharmaKea) were included as standards.
Data analysis: Slope of the linear portion of the progress curve was calculated using Clariostar software. Typical analysis interval was between 8-30 min, but varied between experiments. The background subtracted signals (No protein wells are considered as background) were converted to % activity relative to DMSO controls. Data was analyzed using GraphPad Prism 4 with “sigmoidal dose-response (variable slope)”; 4 parameters with Hill Slope. Constraints: Bottom=Constant equal to 0. Top=Must be less than 120.

Experiment [2] concerns the target T2, Bovine lysyl oxidase (LOX) (Bos taurus, UniProt P33072).
T2 construct: from tissue; host or cells: adult bovine tendon
T2 sequence (P33072 170-418): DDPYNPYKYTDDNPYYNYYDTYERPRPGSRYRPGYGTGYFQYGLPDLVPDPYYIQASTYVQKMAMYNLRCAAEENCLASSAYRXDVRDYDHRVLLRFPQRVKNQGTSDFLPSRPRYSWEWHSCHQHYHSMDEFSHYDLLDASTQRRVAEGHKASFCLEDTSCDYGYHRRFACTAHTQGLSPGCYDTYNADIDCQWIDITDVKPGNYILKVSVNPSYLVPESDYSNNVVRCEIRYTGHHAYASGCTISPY
The experiment is described as follows: LOX inhibition assay (fluorometric, cadaverine/Amplex Red/HRP). As to conditions: IC50 class; bovine tendon LOX, cadaverine substrate; read-out: Activity Range LOX. In kind it is biochemical. Here is the method:
as §1, with “prototypic LOX” for “one or more of the lysyl oxidases LOXL2 and/or LOXL3”, “prototypic” for “the specific”, “LOX” for “LOX family”
Enzyme: Bovine lysyl oxidase (LOX) was extracted by adapting the methodology from [Kagan et al. 1979 and Borel et al. 2001.] from bovine tendon: Frozen adult bovine tendon was placed in room temperature water to defrost, and then membranes were removed and the remaining tissue cut into 1 cm pieces. The material was first passed through a course mesh meat grinder, and this mince was passed through a fine mesh grinder. The mince was homogenized in 10 v/w of buffer (16 mM sodium phosphate buffer pH 7.8, 400 mM NaCl) using a Waring blender. The homogenate was centrifuged at 15,000×g for 15 min at 4° C. After centrifugation, the supernatant was discarded and the pellets resuspended in 10 volumes of the same buffer. The mixture was blended again and centrifuged with the same settings. This time the pellets were blended in 3 volumes of extraction buffer (16 mM sodium phosphate buffer pH 7.8) and left to incubate at 4° C. for 2 h. After this time, the slurry was centrifuged with the same settings as described above. The supernatant was used in an ultrafiltration step to remove large proteins by size exclusion through a 30 kDalton filter (EMD Millipore). The filtrate was mixed with DEAE Sephadex (GE Healthcare), or passed over a MonoQ FPLC column. After two washes, one in 16 mM sodium phosphate buffer pH 7.8, 380 mM NaCl, and another in 16 mM sodium phosphate buffer pH 7.8, the proteins were eluted with 16 mM sodium phosphate pH 7.8, 10 μM CuSO4, and 4 M urea. Fractions containing Lox activity were collected and stored frozen at −70° C.
Reaction: Final concentration in the LOX assay was as following and performed in a total volume of […]:
Experimental procedure: 7 μl of freshly prepared reaction buffer were delivered to reaction wells. Compounds were resuspended in 100% DMSO at 10 mM and delivered into buffer using acoustic technology (Echo550; nanoliter range). A 2.85× solution of LOX protein in reaction buffer was prepared (“LOX solution”) and 7 μl of LOX solution was added into the reaction wells. Buffer only was added to column 1 for no protein control. Reactions were incubated for 30 minutes at 37° C. A 3.33× mixture of cadaverine, Amplex Red, and HRP (“Substrate/Detection Mix) was prepared and subsequently 6 μL of the mixture was added to each reaction well. Progress of reactions was monitored for 120 minutes at 37° C. using Clariostar plate reader (ex530-12, ems 600-40). For all activity assays, pan-LOX inhibitor CCT365623 (Tang et al, 2017) and LOXL2/LOXL3 inhibitor PAT-1251 (PharmaKea) were included as standards.
Data analysis: Slope of the linear portion of the progress curve was calculated using Clariostar software. Typical analysis interval was between 20-50 min, but varied between experiments. The background subtracted signals (No protein wells were considered as background) were converted to % activity relative to DMSO controls. Data was analyzed using GraphPad Prism 4 with “sigmoidal dose-response (variable slope)”; 4 parameters with Hill Slope. Constraints: Bottom=Constant equal to 0. Top=Must be less than 120.

In patent US20230310445A1, “LOX ENZYME INHIBITING METHODS AND COMPOSITIONS” (ANOVIA BIOSCIENCES, INC., priority 2020, published 2023) one finds IC50 data, which are given here for twelve compounds.

With `NCc1ccnc(S(=O)(=O)N2C[C@@H](C(=O)N3CCS(=O)(=O)CC3)C[C@@H](N3CCCCC3)C2)c1` (racemic) [Example 148, cis-(1′-((4-(Aminomethyl)pyridin-2-yl)sulfonyl)-[1,3′-bipiperidin]-5′-yl)(1,1-dioxidothiomorpholino)methanone 2,2,2-trifluoroacetate], the IC50 was no more than 500 nM in experiment [1] and 1 to 30 µM in experiment [2].
For `NCc1cc(S(=O)(=O)N2C[C@H](C(=O)N3CCS(=O)(=O)CC3)C[C@@H](c3ccccc3)C2)ccn1` (racemic) [Example 130T, trans-(1-((2-(Aminomethyl)pyridin-4-yl)sulfonyl)-5-phenylpiperidin-3-yl)(1,1-dioxidothiomorpholino)methanone 2,2,2-trifluoroacetate] the same measures were no more than 500 nM and 1 to 30 µM.
For `NCc1ccc(S(=O)(=O)N2C[C@@H](C(=O)N3CCNCC3)C[C@@H](c3ccccc3)C2)s1` (racemic) [Example 15, cis-(1-((5-(Aminomethyl)thiophen-2-yl)sulfonyl)-5-phenylpiperidin-3-yl)(piperazin-1-yl)methanone 2,2,2-trifluoroacetate] the same measures were no more than 500 nM and 0.5 to 1 µM.
For `CN(C)C(=O)N1C[C@@H](c2ccccc2)C[C@H](S(=O)(=O)c2cccc(CN)c2)C1` (racemic) [Example 94, trans-3-((3-(Aminomethyl)phenyl)sulfonyl)-N,N-dimethyl-5-phenylpiperidine-1-carboxamide 2,2,2-trifluoroacetate] the same measures were 500 to 1000 nM and greater than 30 µM.
With `NCc1cnc(S(=O)(=O)N2C[C@@H](C(=O)N3CCOCC3)C[C@@H](c3ccccc3)C2)s1` (racemic) [Example 111, cis-(1-((5-(Aminomethyl)thiazol-2-yl)sulfonyl)-5-phenylpiperidin-3-yl)(morpholino)methanone 2,2,2-trifluoroacetate], the IC50 in experiment [1] was 500 to 1000 nM; in experiment [2] it was greater than 30 µM.
For `NCc1cccc(S(=O)(=O)N2C[C@@H](C(=O)N3CCS(=O)(=O)CC3)C[C@@H](c3ccccc3)C2)c1` (racemic) [Example 77] the same measures were 1000 to 30000 nM and greater than 30 µM.
As to `NCc1cncc(S(=O)(=O)N2C[C@@H](C(=O)N3CCS(=O)(=O)CC3)C[C@@H](c3ccccc3)C2)c1` (racemic) [Example 132, cis-(1-((5-(Aminomethyl)pyridin-3-yl)sulfonyl)-5-phenylpiperidin-3-yl)(1,1-dioxidothiomorpholino)methanone 2,2,2-trifluoroacetate], the IC50 in experiment [1] was 1000 to 30000 nM; in experiment [2], greater than 30 µM.
As for `NCc1cccc(O[C@@H]2C[C@H](c3ccccc3)CN(C(=O)N3CCOCC3)C2)c1` (racemic) [Example 72], the IC50 in experiment [1] is 1000 to 30000 nM; in experiment [2], greater than 30 µM.
`CS(=O)(=O)N1CCN(C(=O)[C@H]2C[C@@H](N3CCCCC3)CN(S(=O)(=O)c3cc(CN)ccn3)C2)CC1` (racemic) [Example 149, cis-(1′-((4-(Aminomethyl)pyridin-2-yl)sulfonyl)-[1,3′-bipiperidin]-5′-yl)(4-(methylsulfonyl)piperazin-1-yl)methanone 2,2,2-trifluoroacetate]: the IC50 was 500 to 1000 nM in experiment [1] and greater than 30 µM in experiment [2].
As for `NCc1cc(S(=O)(=O)N2C[C@@H](C(=O)N3CCS(=O)(=O)CC3)C[C@@H](c3ccccc3)C2)ccn1` (racemic) [Example 130, cis-(1-((2-(Aminomethyl)pyridin-4-yl)sulfonyl)-5-phenylpiperidin-3-yl)(1,1-dioxidothiomorpholino)methanone 2,2,2-trifluoroacetate], the IC50 in experiment [1] is 500 to 1000 nM; in experiment [2], 1 to 30 µM.
For `CN(C)C(=O)[C@H]1C[C@H](S(=O)(=O)c2cccc(CN)c2)CN(C2CCCCC2)C1` (racemic) [Example 141T, trans-5-((3-(Aminomethyl)phenyl)sulfonyl)-1-cyclohexyl-N,N-dimethylpiperidine-3-carboxamide] the same measures were no more than 500 nM and greater than 30 µM.
The matching figures for `NCc1ccc(S(=O)(=O)N2C[C@@H](C(=O)N3CCS(=O)(=O)CC3)C[C@@H](C3CCCCC3)C2)s1` (racemic) [Example 121, cis-(1-((5-(Aminomethyl)thiophen-2-yl)sulfonyl)-5-cyclohexylpiperidin-3-yl)(1,1-dioxidothiomorpholino)methanone 2,2,2-trifluoroacetate]: no more than 500 nM and no more than 0.5 µM.
